Consider 4 compounds from patent US9259433B2, “Synergistic antiviral compositions comprising a viral attachment inhibitor, an integration inhibitor, and a proviral transcription inhibitor, and their use” (priority 2007, dated 2016).

Data set [1] relates to HIV-1. The data set can be described thus: Acute HIV-1 infection of H9 cells. The data set is classed as cell-based. Particulars: Human immunodeficiency virus 1. From the text:
(§1) a. Salvia genus of Labiaceae family contains approximately 1000 species. 78 of these are distributed in different regions in China. […] An INi search was established based on an assay-guided purification procedure utilizing different concentrations of methanol, propanol, a two-layer extraction system (low salt water/butanol), and a high resolution inverted phase HPLC (Sperisorb OD S-2).

Data set [2] deals with HIV-1RTMF (AZT-resistant virus). Nature of the data set: HIV replication in infected H9 cells, HIV/p24 monoclonal antibody assay. The data set is classed as cell-based. The protocol: (§2) The inhibitory effect of M522 and M532 against HIV replication was further examined using 5 different strains of HIV-1, drug resistant and primary isolates in the presence of a variety of drug concentrations in infected H9 cells.
A series of drug concentrations ranging from 1.25 μg/ml to 160 μg/ml were used for testing the cytotoxicity of M522 and M532 in H9 cells, using the MTT assay to determine the viability of H9 cells in culture.

A further data set relates to HIV-1MN. The description is as above. Format: cell-based. The following applies: Human immunodeficiency virus 1.
Description: as §2

The subject of the next data set is HIV-1IIIB. Described as above. Particulars: Human immunodeficiency virus 1. Format: cell-based.
Description: as §2

The next data set concerns HIV-1IIIBA17 variant. Described as above. The data set is classed as cell-based. Particulars: Human immunodeficiency virus 1, H9.
Description: as §2

In data set [3] the test system is HIV-1L1OR/M461/L63P.V82T/184V (protease inhibitor resistant virus). Described as above. Format: cell-based. Particulars: Human immunodeficiency virus 1, H9.
Description: as §2

The subject of the next data set is HIV-1RTMF. The data set can be described thus: Drug combination study in H9 cells infected with HIV-1RTMF, p24 assay. The data set is classed as cell-based. From the text: We tested drug combinations against two different cells infected with laboratory strain of HIV-1 RTMF. For these drug combinational studies, both the H9 cells and human PBMC have been used. We first tested how our inhibitors affect one specific strain of HIV which is resistant to drug against RT (HIV-1RTMF). Briefly H9 (1×10^5/ml) were infected with HIV-1RTMF strain with a multiplicity of infection of 0.1. These cells were further tested with three drugs, M522, Gen-1 and G4N, either in combination or separately (8, 10, 21B). After 4-day incubation at 37° C., H9 cells were subcultured with fresh culture medium containing appropriate concentrations 0, 1.25, 2.5, 5, 10, 20, 40 and 80 μM of each of the drugs, or of a combination of all three of the drugs, each at the indicated concentration. The inhibition for HIV-1 by these combinations of drugs was examined using p24 assay after 8 days.
(§3) Similarly, PBMC cells were isolated from a healthy blood sample and these cells were stimulated by PHA and IL-2. PBMC (5×10^6/ml) were infected with HIV-1RTMF. The cells were treated with three combinations of drugs, M522, Gen-1 and G4N. Fresh media and drugs were added after 4 days with drug concentrations 0, 1.25, 2.5, 5, 10, 20, 40 and 80 μM. The inhibition for HIV-1 by these combinations of drugs was also examined by using p24 assay after 8 days. […] In comparison, cytotoxicity for the three drugs combined to H9 cells was also analyzed using an MTT assay.

The target in the next data set is T1, reverse transcriptase (Human immunodeficiency virus type 1 group M subtype B, UniProt P04585).
T1 construct: endogenous in cells; host or cells: HIV-infected cells (H9 cells named in the same paragraph)
The data set can be described thus: Reverse transcriptase activity and viral DNA levels in infected cells. Format: cell-based, HIV.
Description: as §1

For the next data set, the target named is HIV-1 integrase (Human immunodeficiency virus type 1 group M subtype B, UniProt P04585). Nature of the data set: HIV-1 integrase catalytic activity of 3'-joining to the target DNA. The data set is classed as biochemical.
Description: as §1

In data set [4] the target is wild type HIV-1 integrase (Human immunodeficiency virus type 1 group M subtype B, UniProt P04585). The data set can be described thus: Disintegration assay. The following applies: equal efficacy with deletion mutant. Format: biochemical. As for the experimental part:
(§4) To determine whether M522 and M532 are acting against the catalytic core domain specifically, disintegration assay was tested using deletion mutant IN containing only the core domain of HIV integrase. Such deletion mutant is defective for normal integration, but it is capable of catalyzing a reversal of the forward reaction, termed “disintegration”. The disintegration reaction can be assayed by using a deletion mutant HIV-1 integrase (IN^50-212) which lacks both the amino terminal zinc binding and the carboxyl terminal DNA binding domains but remains active in this assay, whereas such truncated IN loses activity in the 3′-processing and joining (strand transfer) assays. So, disintegration assay can be used to probe the site of drug-enzyme binding.

The target in data set [5] is deletion mutant HIV-1 integrase (IN^50-212) (Human immunodeficiency virus type 1 group M subtype B, UniProt P04585). Nature of the data set: Disintegration assay. Format: biochemical. Particulars: IN^50-212 core domain; equal efficacy with wild type. As for the experimental part:
as §4

For a further data set, the system named is H9 cells. Format: cell-based. The following applies: human, 192 h. As for the experimental part: A series of drug concentrations ranging from 1.25 μg/ml to 160 μg/ml were used for testing the cytotoxicity of M522 and M532 in H9 cells, using the MTT assay to determine the viability of H9 cells in culture. […] In fact, the drug-protected, HIV-infected H9 cells appeared to be morphologically identical to the uninfected control cells (6).
as §3

The next data set concerns HIV. The data set can be described thus: HIV entry in H9 cells. The data set is classed as cell-based. Particulars: compound by itself.
Description: as §1

Data set [6] has as its system HIV Sp1 enhancer sequence. The data set can be described thus: Binding to Sp1 enhancer sequence by ethidium displacement. The following applies: excitation 517 nm, emission 596 nm. From the text:
The mechanism underlying the antiviral action for NDGA derivatives was largely unknown before 1995. In 1995, Huang's group first reported a molecular study on 3′-O-methyl NDGA (FIG. 11, Mal 4)(15) isolated from creosote bush (Larrea tridentate) (16,3). […] NDGA derivatives interfere with the binding of transcription factor Sp1 to the promoter of the HIV proviral template. The target of Mal.4 is mapped to nucleotides −87 to −40, the Sp1 binding sites of the HIV long terminal repeat (LTR). […] However, large preparations of such NDGA derivatives from plant sources are labor intensive and costly. In anticipation of the possible clinical use of lignans in controlling Sp1-regulated viral and tumor growth in humans, nine different methylated NDGAs and several water soluble NDGA derivatives were synthesized chemically in large quantities with low cost (17, 18, 26, FIG. 11). Unsubstituted NDGA was used as the parent substrate. […]

The nature of data set [7]: Topical toxicity in guinea pigs. The data set is classed as in vivo.
The test system of another data set is HSV-1. The data set can be described thus: Dorsal cutaneous guinea pig model of HSV-1 infection. The data set is classed as in vivo. The protocol: M4N and G4N were tested for their abilities to prevent HSV-1 infection in two animal model systems. The dorsal cutaneous guinea pig model system is a well-established model for HSV-1 infection that has been used in several studies to comparatively assess the potential efficacy of different topical formulations for treatment of herpes labialis. Straten M V, Carrasco D, Lee P, Tyring S K, Arch. Dermatol 137, 1232-1235 2001.

The next data set deals with HSV-2. The data set can be described thus: Mouse vaginal model of HSV-2 infection. The data set is classed as in vivo, female CF-1 mice. From the text: P4N was also found to be quite effective.
Data set [8] has as its system acyclovir-resistant strains of HSV-1. The data set can be described thus: Inhibition of acyclovir-resistant strains of HSV-1. The data set is classed as cell-based. From the text: Because the inhibitory mechanism of this class of compounds is completely distinct from the antiviral mechanism of nucleoside analogue agents, there is little possibility of cross-resistance between these two classes of drugs.

For data set [9], the system named is HIV-1. Particulars: read-out: inhibited HIV replication (IC90); FIG. 5.
Data set [10] relates to HIV-1.
For data set [11] the following is noted: mouse, in vivo.
Description: The efficacies of M4N and G4N against HSV-2 in a mouse vaginal model system were also examined. Progestin-treated female CF-1 mice (10 per group) were infected with HSV-2 in the absence or presence of G4N (in PBS), P4N (in PBS), or M4N in Vaseline (23). At the end of three days, the vaginal lavages were collected from the washings of the vagina regions. The status of the vaginal HSV-2 infection and replication were examined by their cytopathic effects on cultured human foreskin fibroblast cells. Monitoring and scoring were carried out by three persons independently.

Values joined by “and” are separate entries in the source; they are usually repeats but may differ in a detail not shown here. Identical values can stand only once. Like-named read-outs stand apart in the source and are kept apart here.

As a reminder, the IC50 is the concentration that gives 50% inhibition. In the case of `O=C(/C=C/c1ccc(O)c2c1[C@H](C(=O)O)[C@@H](c1ccc(O)c(O)c1)O2)O[C@H](Cc1ccc(O)c(O)c1)C(=O)O` [M522, lithospermic acid], the IC50 was 2 µM in the data set with HIV-1 [1]; 2.5 µg/mL and 4.6 µM in data set [2] (Human immunodeficiency virus 1, H9); 16.7 µM and 9 µg/mL in the data set with HIV-1MN; 11 µg/mL and 20.4 µM in the data set with HIV-1IIIB; 1.1 µg/mL and 2 µM in the data set with HIV-1IIIBA17 variant; 6 µg/mL and 11.1 µM in data set [3]. Also, the IC50 with HIV-1RTMF (Human immunodeficiency virus 1, H9, 192 h) is 4 to 6 µM; against HIV-1 integrase, 0.48 µM. The syncytia formation entry in [2] (H9 cells infected with HIV-1RTMF in the presence of drug) is on record as “syncytia formation was prevented”. Besides, at reverse transcriptase (following drug treatment), the “levels of intracellular strong stop and full-length viral DNA” value is “remained unchanged”. At reverse transcriptase (infected cells), the “inhibition of reverse transcriptase activity” value is reported as “no inhibition of reverse transcriptase activity”. The inhibition of disintegration entry in data set [4] and in [5] was “inhibited” each time. Further, in the data set on H9 cells, the “CC100 (highest concentration tested, cells remained viable)” value is 160 µg/mL. Besides, the “prevention of HIV entry” value with HIV was “Neither M522 nor M532 by itself prevents HIV entry”.

Turning to `C[C@H](Cc1ccc(OC(=O)CN(C)C)c(OC(=O)CN(C)C)c1)[C@@H](C)Cc1ccc(OC(=O)CN(C)C)c(OC(=O)CN(C)C)c1` [G4N, meso-1,4-bis[3,4-(dimethylaminoacetoxy)phenyl]-(2R,3S)dimethylbutane], the “apparent equilibrium binding constant (Kapp)” value in data set [6] worked out at 3e+06 M⁻¹. For the same compound, the “toxicity or dermal irritation” value in [7] (highest soluble concentrations (150 mM)) was “no evidence of toxicity or dermal irritation”. Besides, the toxicity result in data set [7] (topical application for six days, up to 50 mM) was “no evidence of toxicity”. In the data set with HIV-1RTMF (H9 cells, p24 assay after 8 days, for the combination, this concentration of each drug, read-out: IC50), the IC50 stood at 18 µM. Also, the “response to treatment (visual assessment)” value in the data set with HSV-1 (5 μM) is on record as “semi-effective”; with HSV-1 (10 μM), “more effective”; with HSV-1 (150 μM), “extremely effective”. In addition, the “HSV-1 induced cutaneous lesion formation and viral shedding” value in the data set with HSV-1 (guinea pig, in vivo) is “effectively inhibited”. Also, the average score with HSV-2 (0.1 mM) amounted to 0.5. Further, the infection in the data set on HSV-2 (0.1 mM) is around 12.5 % infection. The animals infected in the data set on HSV-2 (0.1 mM, 10 mice per group, day 3 vaginal lavage) was 1 out of 10; with HSV-2 (10 mM, 10 mice per group) it was “no infections detected”; in the data set with HSV-2 (100 mM) it was “no infections detected”. In addition, the “efficacy against acyclovir-resistant strains” value in data set [8] is reported as “no cross-resistance”.

Usually IC90 stands for the point of the concentration-response curve where the effect stands at 90%. acetylated Tieghemelin [oAc-Gen-1]: the IC90 with HIV-1 [9] was around 10 µM. In addition, the “HIV-1 entry and infection in CD4+ cells” value with HIV-1 [10] (preincubation of drug with CD4+ cells) was “did not prevent HIV-1 entry and infection”. In addition, in the data set with HIV-1 [10] (preincubation of drug with HIV-1 virus), the “infectivity of HIV-1” value is “totally inactivated the infectivity”.

For `COc1ccc(C[C@@H](C)[C@@H](C)Cc2ccc(OC)c(OC)c2)cc1OC` [M4N, tetra-O-methyl NDGA], the toxicity result in data set [11] is on record as “no toxicity”. In the data set with HSV-2 (20 mg/ml in Vaseline), the “infection in the other 4 mice” value was “very little infection”; the “mice fully infected, out of 8” value was found to be 4; the “score of the fully infected mice” value is 3-4. The “efficacy against acyclovir-resistant strains” value in data set [8] is listed as “retains complete efficacy”.
